Measured values published in patent US20080114041A1, “Benzothiazolesulfonamides” (AstraZeneca AB, priority 2004, published 2008).

Target: T1, hVR1 (Homo sapiens, UniProt Q8NER1)
T1 construct: expressed in transfected cells
Assay: hVR1 FLIPR (Fluorometric Image Plate Reader) screening assay
Assay type: cell-based
Details: transfected CHO cells stably expressing hVR1; inhibition of calcium increase after agonist (50 nM capsaicin or MES buffer pH 5.2); agonist not given
Procedure: 1. hVR1 FLIPR (Fluorometric Image Plate Reader) Screening Assay
Transfected CHO cells, stably expessing hVR1 (15,000 cells/well) are seeded in 50 ul media in a black clear bottom 384 plate (Greiner) and grown in a humidified incubator (37° C., 2% CO2), 24-30 hours prior to experiment.
Subsequently, the media is removed from the cell plate by inversion and 2 μM Fluo-4 is added using a multidrop (Labsystems). Following the 40 minutes dye incubation in the dark at 37° C. and 2% CO2, the extracellular dye present is washed away using an EMBLA (Scatron), leaving the cells in 40 ul of assay buffer (1×HBSS, 10 mM D-Glucose, 1 mM CaCl2, 10 mM HEPES, 10×7.5% NaHCO3 and 2.5 mM Probenecid).
FLIPR Assay—IC50 Determination Protocol
For IC50 determinations the fluorescence is read using FLIPR filter 1 (em […]). A cellular baseline recording is taken for 30 seconds, followed by a 20 μl addition of 10, titrated half-log concentrations of the test compound, yielding cellular concentration ranging from 3 μM to 0.1 nM. […] This consequently leading to a reduction in fluorescence signal and providing a reduced fluorescence reading, compared with no compound, buffer controls. Data is exported by the FLIPR program as a sum of fluorescence calculated under the curve upon the addition of capsaicin. […]

T1 sequence (Q8NER1 whole entry): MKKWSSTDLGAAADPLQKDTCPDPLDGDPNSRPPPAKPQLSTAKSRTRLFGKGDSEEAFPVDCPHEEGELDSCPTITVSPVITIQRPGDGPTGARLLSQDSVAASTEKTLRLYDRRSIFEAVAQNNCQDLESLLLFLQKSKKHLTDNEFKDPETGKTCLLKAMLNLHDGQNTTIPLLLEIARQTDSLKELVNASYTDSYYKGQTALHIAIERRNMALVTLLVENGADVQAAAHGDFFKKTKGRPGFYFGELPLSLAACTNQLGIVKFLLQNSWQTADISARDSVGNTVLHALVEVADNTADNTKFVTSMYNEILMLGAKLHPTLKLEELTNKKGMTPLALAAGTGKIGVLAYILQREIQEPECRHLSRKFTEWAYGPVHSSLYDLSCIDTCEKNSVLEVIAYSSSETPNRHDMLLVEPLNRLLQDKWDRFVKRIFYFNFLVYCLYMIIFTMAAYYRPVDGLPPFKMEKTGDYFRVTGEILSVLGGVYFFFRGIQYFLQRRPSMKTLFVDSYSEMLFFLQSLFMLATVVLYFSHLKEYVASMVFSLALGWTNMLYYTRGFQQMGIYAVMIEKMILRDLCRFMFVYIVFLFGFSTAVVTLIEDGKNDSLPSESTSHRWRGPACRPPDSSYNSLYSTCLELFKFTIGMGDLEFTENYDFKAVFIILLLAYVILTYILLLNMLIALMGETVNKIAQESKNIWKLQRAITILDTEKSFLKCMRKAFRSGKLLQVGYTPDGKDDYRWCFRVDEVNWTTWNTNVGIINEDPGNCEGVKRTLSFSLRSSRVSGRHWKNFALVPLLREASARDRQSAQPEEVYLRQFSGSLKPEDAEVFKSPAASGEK

- IC50: 2870 nM
Structure (SMILES): O=S(=O)(NCc1cccc(C(F)(F)F)c1)c1ccc2sc(CO)nc2c1 [Compound 5, 2-(hydroxymethyl)-N-[3-(trifluoromethyl)benzyl]-1,3-benzothiazole-5-sulfonamide]
